As a reminder, the IC50 is the concentration at which inhibition is half-maximal. Higher therefore signals lower potency. In general, GI50 refers to the concentration that inhibits growth by half. A high value points to lower sensitivity of the cells.

For seven molecules, IC50, GI50 and DC50 results are on record in patent publication US20240382600A1, “BIFUNCTIONAL DEGRADERS COMPRISING A TEAD BINDER” (Novartis AG, priority 2021, published 2024).

Test [1] has as its system MKN-45/Ubc-luc cells (unspecific inhibition of luciferase expression or activity). Kind of test: Reporter gene assay specificity control (Ubc-Luc), MKN-45. Format: cell-based. Particulars: MKN-45/Ubc-luc specificity control, 24 hrs. A digest of the protocol: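 MKN-45 cells stably carrying a ubiquitin C promoter–firefly luciferase construct, treated the day after seeding with eleven 2-fold compound dilutions (0.1% DMSO final) for 24 hrs at 37° C. Luminescence read 5 min after Steady Glo addition; cell-free background subtracted, as a control for nonspecific luciferase inhibition.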
A general note: Reporter assays use an easily measured gene product as a stand-in for the process of interest.

Test [2] concerns YAP-dependent transcription in NCI-H2052 Tet-On shYAP_2371 pLenti6 MCAT_Luc cells. In words: YAP reporter gene activity assay (MCAT-Luc), NCI-H2052. In kind it is cell-based. Particulars: 24 hrs.
The test system of test [3] is NCI-H2052 Tet-On shYAP_2371 pLenti6 MCAT_Luc cells. Kind of test: Proliferation assay (resazurin/AlamarBlue), NCI-H2052. In kind it is cell-based. Particulars: NCI-H2052, 72 hours. For orientation: The colour change of resazurin is a common sign of viable cells or microbes.
The subject of the next test is MKN-45/Ubc-luc cells. Kind of test: Proliferation assay (resazurin/AlamarBlue), MKN-45. In kind it is cell-based. Particulars: MKN-45, 72 hours. In outline:
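MKN-45 cells carrying constitutive Ubc-driven luciferase reporter, treated the day after seeding with eleven 2-fold dilutions (0.1% DMSO) for 72 h at 37 °C. Viability by resazurin, referenced to day-0 plate; GI50 from % growth (100 none, 0 stasis, −100 kill) and residual viability at top concentration.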

In test [4] the test system is SF268-MCAT_Luc_dox-i-shYAPLevy (Clone 13) cells. Kind of test: Proliferation assay (resazurin/AlamarBlue), SF268. Format: cell-based. Particulars: SF268, 72 hours.
The target in test [5] is Avi-humanTEAD4^217-434 / Cy5 labeled humanYAP^60-100 (Homo sapiens (Human), UniProt Q15561). Kind of test: In-vitro biochemical TR-FRET assay (TEAD4/YAP). Format: binding. The settings on record: 1 h at room temperature. For orientation: Time-resolved FRET reads energy transfer from a long-lived donor to a nearby acceptor.
Test [6] concerns YAP-dependent transcription in SF268-MCAT_Luc_dox-i-shYAPLevy (Clone 13) cells. Kind of test: YAP reporter gene activity assay (MCAT-Luc), SF268. In kind it is cell-based. The settings on record: SF268 MCAT_Luc, 24 hrs.
Test [7] addresses TEAD1-GFP in HEK293A cells (Homo sapiens (Human), UniProt P28347). In words: TEAD1 protein abundance flow cytometry assay in HEK293A. In kind it is cell-based. Particulars: HEK293A TEAD1-GFP-CHYSEL-mCherry sensor cells, 24 h, GFP signal by flow cytometry. A digest of the protocol: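 HEK293A stably expressing bicistronic TEAD1-GFP-CHYSEL-mCherry treated 24 h at 37° C with 10-point 3-fold series from 10 μM (0.1% DMSO), duplicate. Median GFP of 2,500 single cells by flow cytometry, normalized to parental HEK293A (0%) and DMSO (100%); DC50 from concentration-response curves.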

Avi-humanTEAD4^217-434 / Cy5 labeled humanYAP^60-100, sequence (Q15561 217-434): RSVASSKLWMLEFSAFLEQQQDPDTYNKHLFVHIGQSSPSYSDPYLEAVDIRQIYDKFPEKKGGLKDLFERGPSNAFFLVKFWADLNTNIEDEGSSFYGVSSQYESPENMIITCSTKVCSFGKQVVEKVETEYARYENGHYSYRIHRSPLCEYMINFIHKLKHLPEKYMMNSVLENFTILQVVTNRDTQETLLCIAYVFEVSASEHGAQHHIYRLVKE
TEAD1-GFP in HEK293A cells, sequence (P28347 whole entry): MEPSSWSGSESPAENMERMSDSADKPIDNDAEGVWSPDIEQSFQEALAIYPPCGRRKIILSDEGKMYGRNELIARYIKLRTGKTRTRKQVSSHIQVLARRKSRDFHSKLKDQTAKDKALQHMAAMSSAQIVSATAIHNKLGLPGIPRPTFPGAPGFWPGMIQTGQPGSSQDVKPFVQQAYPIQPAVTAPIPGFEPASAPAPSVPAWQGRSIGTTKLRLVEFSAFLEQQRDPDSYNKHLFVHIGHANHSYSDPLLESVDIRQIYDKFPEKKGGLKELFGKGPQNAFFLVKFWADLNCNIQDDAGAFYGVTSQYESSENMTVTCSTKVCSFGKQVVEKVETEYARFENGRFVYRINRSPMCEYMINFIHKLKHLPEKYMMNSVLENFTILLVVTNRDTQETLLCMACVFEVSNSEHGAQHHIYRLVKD

As for `COc1ccc(C(N)=O)c(-c2c(Cl)c(F)cc3c2[C@H](C)[C@@](CN[C@H]2CC[C@H](C(=O)N4CCC(OC5CCN(C(=O)c6ccc(Cl)c(N7CCC(=O)NC7=O)c6)CC5)CC4)CC2)(c2ccccc2)O3)c1F` (atropisomer, axis not shown) [Example 13, 2-((2S,3S,4S)-5-chloro-2-((((1r,4S)-4-(4-((1-(4-chloro-3-(2,4-dioxotetrahydropyrimidin-1(2H)-yl)benzoyl)piperidin-4-yl)oxy)piperidine-1-carbonyl)cyclohexyl)amino)methyl)-6-fluoro-3-methyl-2-phenyl-2,3-dihydrobenzofuran-4-yl)-3-fluoro-4-methoxybenzamide], the IC50 is greater than 2000 nM in test [1] (Homo sapiens); 4.5 nM in test [2] (Homo sapiens); 1.8 nM in test [5]; 0.49 nM in test [6] (Homo sapiens, SF-268). The GI50 in test [3] (Homo sapiens) is 13 nM; with MKN-45/Ubc-luc cells (Homo sapiens), greater than 2000 nM; in test [4] (Homo sapiens, SF-268), 23 nM. In addition, in test [7], the DC50 came to 0.5 nM.

Consider `COc1ccc(C(=O)N2CCN(CC3CN(C(=O)[C@H]4CC[C@H](NC[C@]5(c6ccccc6)Oc6cc(F)c(Cl)c(-c7c(C(N)=O)ccc(OC)c7F)c6[C@@H]5C)CC4)C3)CC2)cc1N1CCC(=O)NC1=O` (atropisomer, axis not shown) [Example 9, 2-((2S,3S,4S)-5-chloro-2-((((1r,4S)-4-(3-((4-(3-(2,4-dioxotetrahydropyrimidin-1(2H)-yl)-4-methoxybenzoyl)piperazin-1-yl)methyl)azetidine-1-carbonyl)cyclohexyl)amino)methyl)-6-fluoro-3-methyl-2-phenyl-2,3-dihydrobenzofuran-4-yl)-3-fluoro-4-methoxybenzamide], for which the IC50 was greater than 2000 nM in test [1] (Homo sapiens); 350 nM in test [2] (Homo sapiens); 1.2 nM in test [5]; 3.5 nM in test [6] (Homo sapiens, SF-268). For the same molecule, the GI50 was 1190 nM in test [3] (Homo sapiens); greater than 2000 nM in the test with MKN-45/Ubc-luc cells (Homo sapiens); 120 nM in test [4] (Homo sapiens, SF-268). In test [7], the DC50 was found to be 112 nM.

Turning to `COc1ccc(C(=O)N2CCC(CC3CCN(CCNC(=O)[C@H]4CC[C@H](NC[C@]5(c6ccccc6)Oc6cc(F)c(Cl)c(-c7c(C(N)=O)ccc(OC)c7F)c6[C@@H]5C)CC4)CC3)CC2)cc1N1CCC(=O)NC1=O` (atropisomer, axis not shown) [Example 7, 2-((2S,3S,4S)-5-chloro-2-((((1r,4S)-4-((2-(4-((1-(3-(2,4-dioxotetrahydropyrimidin-1(2H)-yl)-4-methoxybenzoyl)piperidin-4-yl)methyl)piperidin-1-yl)ethyl)carbamoyl)cyclohexyl)amino)methyl)-6-fluoro-3-methyl-2-phenyl-2,3-dihydrobenzofuran-4-yl)-3-fluoro-4-methoxybenzamide], the IC50 in test [1] (Homo sapiens) is greater than 20000 nM; in test [2] (Homo sapiens) it was 29 nM; in test [5], less than 1 nM; in test [6] (Homo sapiens, SF-268) it was 0.4 nM. The GI50 in test [3] (Homo sapiens) was 77 nM; with MKN-45/Ubc-luc cells (Homo sapiens) it was greater than 20000 nM; in test [4] (Homo sapiens, SF-268), 26 nM. The molecule further had a DC50 in test [7] of 3 nM.

Take `COc1ccc(C(=O)N2CCN(CC3CCN(CCNC(=O)[C@H]4CC[C@H](NC[C@]5(c6ccccc6)Oc6cc(F)c(Cl)c(-c7c(C(N)=O)ccc(OC)c7F)c6[C@@H]5C)CC4)CC3)CC2)cc1N1CCC(=O)NC1=O` (atropisomer, axis not shown) [Example 3, 2-((2S,3S,4S)-5-chloro-2-((((1r,4S)-4-((2-(4-((4-(3-(2,4-dioxotetrahydropyrimidin-1(2H)-yl)-4-methoxybenzoyl)piperazin-1-yl)methyl)piperidin-1-yl)ethyl)carbamoyl)cyclohexyl)amino)methyl)-6-fluoro-3-methyl-2-phenyl-2,3-dihydrobenzofuran-4-yl)-3-fluoro-4-methoxybenzamide]: the IC50 is greater than 20000 nM in test [1] (Homo sapiens); 98 nM in test [2] (Homo sapiens); less than 1 nM in test [5]; 1.6 nM in test [6] (Homo sapiens, SF-268). Moreover, the GI50 is 320 nM in test [3] (Homo sapiens); greater than 20000 nM with MKN-45/Ubc-luc cells (Homo sapiens); 54 nM in test [4] (Homo sapiens, SF-268). The DC50 in test [7] turned out to be 6 nM.

`COc1ccc(C(N)=O)c(-c2c(Cl)c(F)cc3c2[C@H](C)[C@@](CN[C@H]2CC[C@H](C(=O)N4CCC(CC5CCN(C(=O)Cn6cccc(CN7CCC(=O)NC7=O)c6=O)CC5)CC4)CC2)(c2ccccc2)O3)c1F` (atropisomer, axis not shown) [Example 16, 2-((2S,3S,4S)-5-chloro-2-((((1r,4S)-4-(4-((1-(2-(3-((2,4-dioxotetrahydropyrimidin-1(2H)-yl)methyl)-2-oxopyridin-1(2H)-yl)acetyl)piperidin-4-yl)methyl)piperidine-1-carbonyl)cyclohexyl)amino)methyl)-6-fluoro-3-methyl-2-phenyl-2,3-dihydrobenzofuran-4-yl)-3-fluoro-4-methoxybenzamide]: the IC50 in test [1] (Homo sapiens) is greater than 2000 nM; in test [2] (Homo sapiens), 14 nM; in test [5] it was 1.3 nM; in test [6] (Homo sapiens, SF-268) it was 1.2 nM. The GI50 is 52 nM in test [3] (Homo sapiens); greater than 2000 nM in the test with MKN-45/Ubc-luc cells (Homo sapiens); 64 nM in test [4] (Homo sapiens, SF-268). This molecule also returned a DC50 in test [7] of 6 nM.

As to “N-(4-(1-((1S,4r)-4-((((2S,3S,4S)-4-(6-carbamoyl-2-fluoro-3-methoxyphenyl)-5-chloro-6-fluoro-3-methyl-2-phenyl-2,3-dihydrobenzofuran-2-yl)methyl)amino)cyclohexane-1-carbonyl)piperidin-4-yl)butyl)-3-(2,4-dioxotetrahydropyrimidin-1(2H)-yl)-4-methoxybenzamide [Example 18]”, the IC50 was greater than 2000 nM in test [1], 9.9 nM in test [2], 3.9 nM in test [5] and 1.3 nM in test [6]. The GI50 was 27 nM in test [3], greater than 2000 nM in the test on MKN-45/Ubc-luc cells and 60 nM in test [4]. This molecule also returned a DC50 in test [7] of 2 nM.

As to `COc1ccc(C(N)=O)c(-c2c(Cl)c(F)cc3c2[C@H](C)[C@@](CN[C@H]2CC[C@H](C(=O)N4CCC(CC5CCN(C(=O)COc6ccc(N7CCC(=O)NC7=O)c(C)c6)CC5)CC4)CC2)(c2ccccc2)O3)c1F` (atropisomer, axis not shown) [Example 26, 2-((2S,3S,4S)-5-chloro-2-((((1r,4S)-4-(4-((1-(2-(4-(2,4-dioxotetrahydropyrimidin-1(2H)-yl)-3-methylphenoxy)acetyl)piperidin-4-yl)methyl)piperidine-1-carbonyl)cyclohexyl)amino)methyl)-6-fluoro-3-methyl-2-phenyl-2,3-dihydrobenzofuran-4-yl)-3-fluoro-4-methoxybenzamide], the IC50 in test [1] (Homo sapiens) is greater than 2000 nM; in test [2] (Homo sapiens) it was 1.3 nM; in test [5] it was 4 nM; in test [6] (Homo sapiens, SF-268) it was 0.26 nM. The concentration for 50% growth inhibition (GI50) in test [3] (Homo sapiens) is 2.5 nM; in the test on MKN-45/Ubc-luc cells (Homo sapiens) it was greater than 2000 nM; in test [4] (Homo sapiens, SF-268), 12 nM. In test [7], this molecule came in with a DC50 of 0.3 nM.
